The record followed here is ChEMBL document CHEMBL5550200, “Back-Pocket Optimization of 2-Aminopyrimidine-Based Macrocycles Leads to Potent EPHA2/GAK Kinase Inhibitors” (J Med Chem, 2024).

The target of experiment [1] is T1, Ephrin type-B receptor 1 (Homo sapiens) (UniProt P54762).
T1 sequence (whole entry): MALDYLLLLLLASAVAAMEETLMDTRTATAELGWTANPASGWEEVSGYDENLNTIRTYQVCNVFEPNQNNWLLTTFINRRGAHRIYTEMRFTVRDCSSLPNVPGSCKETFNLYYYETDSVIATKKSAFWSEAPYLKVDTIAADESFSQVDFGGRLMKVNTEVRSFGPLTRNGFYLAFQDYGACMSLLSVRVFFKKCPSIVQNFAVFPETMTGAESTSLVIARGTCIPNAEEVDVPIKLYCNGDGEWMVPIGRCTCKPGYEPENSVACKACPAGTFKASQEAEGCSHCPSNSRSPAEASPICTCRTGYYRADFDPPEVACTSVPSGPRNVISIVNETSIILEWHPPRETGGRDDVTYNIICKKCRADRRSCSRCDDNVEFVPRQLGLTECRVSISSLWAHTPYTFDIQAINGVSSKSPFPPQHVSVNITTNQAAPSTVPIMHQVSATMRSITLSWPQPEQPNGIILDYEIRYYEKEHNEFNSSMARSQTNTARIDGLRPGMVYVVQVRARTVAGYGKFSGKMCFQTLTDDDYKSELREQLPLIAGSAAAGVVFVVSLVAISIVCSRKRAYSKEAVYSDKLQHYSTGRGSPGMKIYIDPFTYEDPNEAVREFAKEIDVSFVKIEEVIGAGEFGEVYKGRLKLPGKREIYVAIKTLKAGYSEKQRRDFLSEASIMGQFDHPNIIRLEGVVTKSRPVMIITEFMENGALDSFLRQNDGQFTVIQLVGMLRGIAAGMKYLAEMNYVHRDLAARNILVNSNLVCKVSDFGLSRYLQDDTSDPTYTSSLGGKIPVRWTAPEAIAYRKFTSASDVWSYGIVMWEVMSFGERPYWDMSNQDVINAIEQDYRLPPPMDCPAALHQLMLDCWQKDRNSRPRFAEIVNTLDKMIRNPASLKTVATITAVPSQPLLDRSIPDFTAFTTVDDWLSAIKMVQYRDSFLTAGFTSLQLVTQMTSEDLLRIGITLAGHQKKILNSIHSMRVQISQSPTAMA
The experiment can be described thus: Induction of stabilization of recombinant EPHB1 (unknown origin) assessed as change in melting temperature by differential scanning fluorimetry assay. In general terms: Differential scanning fluorimetry follows unfolding on heating by fluorescence.

The target in experiment [2] is T2, Cyclin-G-associated kinase (Homo sapiens) (UniProt O14976).
T2 sequence (whole entry): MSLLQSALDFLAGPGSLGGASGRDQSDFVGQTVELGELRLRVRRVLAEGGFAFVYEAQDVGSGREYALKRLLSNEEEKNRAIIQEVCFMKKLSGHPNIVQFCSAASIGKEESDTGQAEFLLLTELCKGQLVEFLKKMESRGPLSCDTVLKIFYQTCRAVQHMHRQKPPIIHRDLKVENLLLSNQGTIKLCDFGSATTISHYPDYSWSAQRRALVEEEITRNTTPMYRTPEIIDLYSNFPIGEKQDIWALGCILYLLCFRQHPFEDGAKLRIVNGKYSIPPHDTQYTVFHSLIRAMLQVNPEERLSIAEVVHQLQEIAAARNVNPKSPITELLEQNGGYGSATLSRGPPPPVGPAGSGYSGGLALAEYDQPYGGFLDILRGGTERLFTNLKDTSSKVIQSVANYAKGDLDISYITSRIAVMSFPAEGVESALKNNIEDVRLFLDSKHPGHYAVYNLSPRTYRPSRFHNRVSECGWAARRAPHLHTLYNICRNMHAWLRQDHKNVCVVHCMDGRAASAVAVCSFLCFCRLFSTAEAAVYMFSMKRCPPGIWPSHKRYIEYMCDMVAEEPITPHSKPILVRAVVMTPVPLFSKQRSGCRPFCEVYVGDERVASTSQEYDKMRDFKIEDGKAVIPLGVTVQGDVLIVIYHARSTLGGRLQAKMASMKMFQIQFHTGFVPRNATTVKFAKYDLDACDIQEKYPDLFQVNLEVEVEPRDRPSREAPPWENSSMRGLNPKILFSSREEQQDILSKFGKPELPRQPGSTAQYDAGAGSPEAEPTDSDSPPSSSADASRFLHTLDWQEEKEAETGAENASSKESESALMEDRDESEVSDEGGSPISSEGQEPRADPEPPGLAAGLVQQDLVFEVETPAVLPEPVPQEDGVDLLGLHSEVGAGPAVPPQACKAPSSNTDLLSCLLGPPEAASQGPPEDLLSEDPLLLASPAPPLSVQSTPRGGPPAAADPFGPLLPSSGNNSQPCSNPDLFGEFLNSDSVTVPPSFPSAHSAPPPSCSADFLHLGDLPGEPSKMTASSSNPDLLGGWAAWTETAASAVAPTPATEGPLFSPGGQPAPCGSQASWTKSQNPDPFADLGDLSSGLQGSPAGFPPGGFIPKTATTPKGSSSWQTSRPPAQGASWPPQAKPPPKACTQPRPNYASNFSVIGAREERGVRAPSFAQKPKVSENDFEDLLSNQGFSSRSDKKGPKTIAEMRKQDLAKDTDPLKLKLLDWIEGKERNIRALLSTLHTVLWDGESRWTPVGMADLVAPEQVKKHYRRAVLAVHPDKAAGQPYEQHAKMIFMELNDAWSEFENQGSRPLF
Description: Induction of stabilization of recombinant GAK (unknown origin) assessed as change in melting temperature by differential scanning fluorimetry assay

Experiment [3] concerns the target Ephrin type-A receptor 5 (Homo sapiens) (UniProt P54756).
Description: Induction of stabilization of recombinant EPHA5 (unknown origin) assessed as change in melting temperature by differential scanning fluorimetry assay

Sequence of Ephrin type-A receptor 5 (Homo sapiens) (P54756 whole entry): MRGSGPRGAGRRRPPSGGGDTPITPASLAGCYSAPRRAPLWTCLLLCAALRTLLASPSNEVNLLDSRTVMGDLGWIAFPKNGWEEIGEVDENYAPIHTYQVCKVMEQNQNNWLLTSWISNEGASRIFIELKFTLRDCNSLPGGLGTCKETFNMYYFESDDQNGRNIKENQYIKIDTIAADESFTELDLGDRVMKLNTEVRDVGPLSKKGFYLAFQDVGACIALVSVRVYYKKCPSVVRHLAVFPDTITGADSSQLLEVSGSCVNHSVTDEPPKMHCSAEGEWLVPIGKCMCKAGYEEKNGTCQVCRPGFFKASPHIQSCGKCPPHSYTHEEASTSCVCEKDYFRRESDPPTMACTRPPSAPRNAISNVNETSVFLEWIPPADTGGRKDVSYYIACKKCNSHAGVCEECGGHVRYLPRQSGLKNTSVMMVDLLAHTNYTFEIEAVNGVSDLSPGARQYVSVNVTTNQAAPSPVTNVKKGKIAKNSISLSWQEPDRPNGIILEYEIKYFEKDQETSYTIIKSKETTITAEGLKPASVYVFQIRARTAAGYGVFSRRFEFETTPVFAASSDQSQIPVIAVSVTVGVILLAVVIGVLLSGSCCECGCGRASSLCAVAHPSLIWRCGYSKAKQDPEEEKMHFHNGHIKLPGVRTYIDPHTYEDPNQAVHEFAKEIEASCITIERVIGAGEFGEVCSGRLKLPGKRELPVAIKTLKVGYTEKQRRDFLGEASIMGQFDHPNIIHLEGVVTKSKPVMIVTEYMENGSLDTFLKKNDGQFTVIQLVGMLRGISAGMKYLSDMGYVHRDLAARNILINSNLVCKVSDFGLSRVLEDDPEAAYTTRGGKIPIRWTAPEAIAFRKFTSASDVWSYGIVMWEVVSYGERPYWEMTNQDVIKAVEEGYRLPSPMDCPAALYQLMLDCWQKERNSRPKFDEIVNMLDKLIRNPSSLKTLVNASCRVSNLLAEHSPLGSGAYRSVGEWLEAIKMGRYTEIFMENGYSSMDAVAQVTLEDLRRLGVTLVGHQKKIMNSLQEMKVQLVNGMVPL

With `O=S1(=O)NCCCNc2nc(ncc2-c2ccc(Cl)c(Cl)c2)Nc2cccc1c2`, the figures for the deltaTm in experiment [1], in experiment [2] and in experiment [3] were 2.2 K, 3.6 K and 3.4 K, respectively.

Consider `COc1cc(-c2cnc3nc2NCCCNS(=O)(=O)c2cc(ccc2O)N3)ccc1F`, for which the deltaTm in experiment [1] is 3.5 K; in experiment [2], 8 K; in experiment [3] it was 4.7 K.

Take `COc1c(F)ccc(-c2cnc3nc2NCCCNS(=O)(=O)c2cccc(c2)N3)c1F`: the deltaTm came to 5.6 K in experiment [1], 6.8 K in experiment [2] and 5.4 K in experiment [3].

Take `COc1cc(-c2cnc3nc2NCCCNS(=O)(=O)c2cccc(c2)N3)c(F)cc1F`: the figures for the deltaTm in experiment [1], in experiment [2] and in experiment [3] were 3.3 K, 7.3 K and 5 K, respectively.
